The results in this text go back to the Kinase Knowledgebase extract (Sharma et al. 2016).

The target of test [1] is EGFR (human) (UniProt P00533).
Test [2] concerns the target EGFR (human) (UniProt P00533). As to conditions: a431.

Structures are written as SMILES.

EGFR (human), sequence (P00533 whole entry, looked up): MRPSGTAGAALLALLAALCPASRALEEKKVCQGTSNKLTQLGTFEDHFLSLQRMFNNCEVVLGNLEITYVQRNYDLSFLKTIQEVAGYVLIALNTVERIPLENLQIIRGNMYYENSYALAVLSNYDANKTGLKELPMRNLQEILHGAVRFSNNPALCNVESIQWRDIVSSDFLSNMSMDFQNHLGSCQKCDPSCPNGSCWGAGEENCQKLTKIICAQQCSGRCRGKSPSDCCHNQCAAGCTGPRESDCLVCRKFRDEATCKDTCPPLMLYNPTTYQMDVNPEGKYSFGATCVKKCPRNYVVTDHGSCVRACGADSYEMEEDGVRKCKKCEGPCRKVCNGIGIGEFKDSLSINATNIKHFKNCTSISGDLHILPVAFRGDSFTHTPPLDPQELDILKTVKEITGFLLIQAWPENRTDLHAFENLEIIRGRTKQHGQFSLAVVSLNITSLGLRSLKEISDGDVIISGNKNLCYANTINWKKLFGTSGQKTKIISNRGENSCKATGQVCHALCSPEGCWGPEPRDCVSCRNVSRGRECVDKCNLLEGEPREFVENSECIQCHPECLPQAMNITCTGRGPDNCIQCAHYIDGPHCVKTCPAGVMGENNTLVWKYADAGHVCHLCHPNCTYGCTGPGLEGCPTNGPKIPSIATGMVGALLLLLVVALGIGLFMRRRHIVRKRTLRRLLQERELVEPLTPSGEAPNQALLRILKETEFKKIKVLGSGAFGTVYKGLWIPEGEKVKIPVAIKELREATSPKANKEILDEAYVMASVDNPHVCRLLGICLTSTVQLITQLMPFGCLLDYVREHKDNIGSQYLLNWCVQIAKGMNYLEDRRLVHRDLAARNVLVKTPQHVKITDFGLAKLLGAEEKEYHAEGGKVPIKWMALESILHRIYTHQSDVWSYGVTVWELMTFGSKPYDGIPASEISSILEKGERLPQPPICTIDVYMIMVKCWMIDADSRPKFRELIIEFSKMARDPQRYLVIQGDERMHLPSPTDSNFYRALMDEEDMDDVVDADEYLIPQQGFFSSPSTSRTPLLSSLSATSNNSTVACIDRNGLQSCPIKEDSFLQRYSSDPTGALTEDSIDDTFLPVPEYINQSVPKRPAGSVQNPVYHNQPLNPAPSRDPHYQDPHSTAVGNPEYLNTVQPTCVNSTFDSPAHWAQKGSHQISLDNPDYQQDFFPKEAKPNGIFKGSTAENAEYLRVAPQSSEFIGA

Turning to `Fc1cccc(COc2ccc(Nc3ncnc4ccc(-n5ccc(CNCCN6CCOCC6)c5)cc34)cc2Cl)c1`, the IC50 (usually the point on the concentration scale where inhibition reaches its midpoint) on EGFR (human) [1] is 3 nM; on EGFR (human) [2], 20 nM. As to `OC(CN1CCN(Cc2cccnc2)CC1)Cn1ccc(-c2ccc3ncnc(Nc4ccc5c(cnn5Cc5cccc(F)c5)c4)c3c2)c1` (configuration not stated), the figures for the IC50 against EGFR (human) [1] and against EGFR (human) [2] were 282 nM and 1290 nM, respectively. The corresponding values for `OC(CN1CCN(CC2CC2)CC1)Cn1ccc(-c2ccc3ncnc(Nc4ccc(OCc5cccc(F)c5)c(Cl)c4)c3c2)c1` (configuration not stated) are 79 nM and 409 nM. Regarding `Cn1cccc1-c1ccc2ncnc(Nc3ccc(OCc4cccc(F)c4)c(Cl)c3)c2c1`, the IC50 against EGFR (human) [1] was determined as 6 nM; at EGFR (human) [2], 136 nM. `CS(=O)(=O)CCNC1CCN(C[C@@H](O)Cn2ccc(-c3ccc4ncnc(Nc5ccc(OCc6cccc(F)c6)c(Cl)c5)c4c3)c2)CC1`: the results for the IC50 at EGFR (human) [1] and against EGFR (human) [2] were 11 nM and 3620 nM, respectively. As to `O=C(c1cn(-c2ccc3ncnc(Nc4ccc(OCc5cccc(F)c5)c(Cl)c4)c3c2)cc1CCO)N1CCCCC1`, the IC50 against EGFR (human) [1] was determined as 3 nM; on EGFR (human) [2], 50 nM. Take `OC(CN1CC=CC1)Cn1ccc(-c2ccc3ncnc(Nc4ccc(OCc5cccc(F)c5)c(Cl)c4)c3c2)c1` (configuration not stated): the IC50 came to 22 nM on EGFR (human) [1] and 431 nM against EGFR (human) [2]. For `CS(=O)(=O)N1CCOC(Cn2ccc(-c3ccc4ncnc(Nc5ccc6c(cnn6Cc6cccc(F)c6)c5)c4c3)c2)C1` (configuration not stated), the results for the IC50 against EGFR (human) [1] and at EGFR (human) [2] were 257 nM and 243 nM, respectively. For `OCCc1cn(-c2ccc3ncnc(Nc4ccc(OCc5cccc(F)c5)c(Cl)c4)c3c2)cc1CN1CCCC1` the same measures were 7 nM and 390 nM.

`CN1CCN(CCNC(=O)c2cn(-c3ccc4ncnc(Nc5ccc(OCc6ccccn6)c(Cl)c5)c4c3)cc2CCO)CC1`: the IC50 is 108 nM on EGFR (human) [1] and 120 nM against EGFR (human) [2].

On to `CS(=O)(=O)CCN1CCOC(Cn2ccc(-c3ccc4ncnc(Nc5ccc6c(cnn6Cc6cccc(F)c6)c5)c4c3)c2)C1` (configuration not stated), for which the IC50 against EGFR (human) [1] was 236 nM; against EGFR (human) [2] it was 572 nM.

As for `CCN(CC)CCNCc1cccn1-c1ccc2ncnc(Nc3ccc(OCc4cccc(F)c4)c(Cl)c3)c2c1`, the IC50 on EGFR (human) [1] is 22.5 nM; at EGFR (human) [2], 770 nM.

With `Fc1cccc(COc2ccc(Nc3ncnc4ccc(-c5cc[nH]c5)cc34)cc2Cl)c1`, the values for the IC50 against EGFR (human) [1] and against EGFR (human) [2] were 4 nM and 50 nM, respectively.

Regarding `CS(=O)(=O)CCNCc1ccc(-c2ccc3ncnc(Nc4ccc(OCc5cccc(F)c5)c(Cl)c4)c3c2)[nH]1`, the IC50 against EGFR (human) [1] was determined as 2.6 nM; against EGFR (human) [2], 120 nM.

For `COCCNC(=O)c1cn(-c2ccc3ncnc(Nc4ccc(OCc5ccccn5)c(Cl)c4)c3c2)cc1CCO`, the IC50 on EGFR (human) [1] was 78 nM; against EGFR (human) [2], 200 nM.

Take `CS(=O)(=O)CCNCc1cn(-c2ccc3ncnc(Nc4ccc(OCc5cccc(F)c5)c(Cl)c4)c3c2)cc1C(F)(F)F`: the values for the IC50 against EGFR (human) [1] and on EGFR (human) [2] were 16 nM and 830 nM, respectively. For `O=C(c1cn(-c2ccc3ncnc(Nc4ccc(OCc5cccc(F)c5)c(Cl)c4)c3c2)cc1CCO)N1CCCC1` the same measures were 15 nM and 90 nM. The corresponding values for `OCCN1CCOC(Cn2ccc(-c3ccc4ncnc(Nc5ccc6c(cnn6Cc6cccc(F)c6)c5)c4c3)c2)C1` (configuration not stated) are 205 nM and 477 nM. Turning to `CN1CCN(C(=O)Cn2ccc(-c3ccc4ncnc(Nc5ccc(OCc6cccc(F)c6)c(Cl)c5)c4c3)c2)CC1`, the IC50 at EGFR (human) [1] came out at 6 nM; at EGFR (human) [2] it was 298 nM. As to `Fc1cccc(COc2ccc(Nc3ncnc4ccc(-c5ccn(C[C@H]6CN7CCC[C@@H]7CO6)c5)cc34)cc2Cl)c1`, the IC50 on EGFR (human) [1] was 74 nM; against EGFR (human) [2] it was 1320 nM. As to `CN1CCN(CC(O)Cn2ccc(-c3ccc4ncnc(Nc5ccc6c(cnn6Cc6cccc(F)c6)c5)c4c3)c2)CC1` (configuration not stated), the IC50 against EGFR (human) [1] stood at 2 nM; at EGFR (human) [2] it was 768 nM.

As for `CN1CCN(CCNC(=O)c2cn(-c3ccc4ncnc(Nc5ccc(OCc6cccc(F)c6)c(Cl)c5)c4c3)cc2CCO)CC1`, the IC50 against EGFR (human) [1] came to 7.5 nM; against EGFR (human) [2], 10 nM.

On to `CCN(CC)Cc1ccn(-c2ccc3ncnc(Nc4ccc(OCc5cccc(F)c5)c(Cl)c4)c3c2)c1`, for which the IC50 against EGFR (human) [1] is 9 nM; on EGFR (human) [2] it was 200 nM. As for `O=C(C1CC1)N1CCN(CC(O)Cn2ccc(-c3ccc4ncnc(Nc5ccc(OCc6cccc(F)c6)c(Cl)c5)c4c3)c2)CC1` (configuration not stated), the values for the IC50 against EGFR (human) [1] and against EGFR (human) [2] were 197 nM and 1090 nM, respectively. Take `CN1CCN(CC(O)Cn2ccc(-c3ccc4ncnc(Nc5ccc(OCc6cccc(F)c6)c(Cl)c5)c4c3)c2)CC1` (configuration not stated): the IC50 at EGFR (human) [1] is 36 nM; against EGFR (human) [2], 84 nM. Take `Clc1cc(Nc2ncnc3ccc(-c4ccc[nH]4)cc23)ccc1OCc1ccccn1`: the values for the IC50 against EGFR (human) [1] and at EGFR (human) [2] were 5 nM and 90 nM, respectively.

Regarding `CCN(CC)CCNCc1ccn(-c2ccc3ncnc(Nc4ccc(OCc5cccc(F)c5)c(Cl)c4)c3c2)c1`, the values for the IC50 on EGFR (human) [1] and at EGFR (human) [2] were 8 nM and 200 nM, respectively. For the compound `CNCCn1ccc(-c2ccc3ncnc(Nc4ccc(OCc5cccc(F)c5)c(Cl)c4)c3c2)c1`, the IC50 turned out to be 73 nM on EGFR (human) [1] and 3420 nM against EGFR (human) [2]. For `OC(Cn1ccc(-c2ccc3ncnc(Nc4ccc5c(cnn5Cc5cccc(F)c5)c4)c3c2)c1)Cn1ccnn1` (configuration not stated) the same measures were 58 nM and 400 nM. The corresponding values for `Fc1cccc(Cn2ncc3cc(Nc4ncnc5ccc(-c6ccn(CC7CN(CCN8CCOCC8)CCO7)c6)cc45)ccc32)c1` (configuration not stated) are 276 nM and 1300 nM. As for `CN1CCN(CCn2ccc(-c3ccc4ncnc(Nc5ccc(OCc6cccc(F)c6)c(Cl)c5)c4c3)c2)CC1`, the IC50 against EGFR (human) [1] worked out at 17 nM; on EGFR (human) [2] it was 1780 nM. In the case of `Fc1cccc(COc2ccc(Nc3ncnc4ccc(-c5ccn(CCCN6CCN(c7cccc(Cl)c7)CC6)c5)cc34)cc2Cl)c1`, the IC50 worked out at 32 nM on EGFR (human) [1] and 290 nM on EGFR (human) [2]. Regarding `CN1CCN(C(=O)c2cn(-c3ccc4ncnc(Nc5ccc(OCc6ccccn6)c(Cl)c5)c4c3)cc2CCO)CC1`, the IC50 worked out at 60 nM on EGFR (human) [1] and 130 nM against EGFR (human) [2]. Consider `CCN(CC)C[C@H](O)Cn1ccc(-c2ccc3ncnc(Nc4ccc5c(cnn5Cc5cccc(F)c5)c4)c3c2)c1`, for which the IC50 at EGFR (human) [1] came out at 38 nM; against EGFR (human) [2], 220 nM.

On to `CC(=O)NC1CCN(C(=O)Cn2ccc(-c3ccc4ncnc(Nc5ccc(OCc6cccc(F)c6)c(Cl)c5)c4c3)c2)CC1`, for which the IC50 against EGFR (human) [1] stood at 102 nM; on EGFR (human) [2] it was 952 nM. For `Fc1cccc(COc2ccc(Nc3ncnc4ccc(-c5ccc[nH]5)cc34)cc2Cl)c1` the same measures were 4 nM and 1080 nM. In the case of `OCCC1CCN(CC(O)Cn2ccc(-c3ccc4ncnc(Nc5ccc6c(cnn6Cc6cccc(F)c6)c5)c4c3)c2)CC1` (configuration not stated), the IC50 against EGFR (human) [2] amounted to 273 nM. On EGFR (human) [2], `O=S1(=O)CCC(NCC(O)Cn2ccc(-c3ccc4ncnc(Nc5ccc(OCc6cccc(F)c6)c(Cl)c5)c4c3)c2)CC1` (configuration not stated) yielded an IC50 of 468 nM. In the case of `O=S1(=O)CCN(CC(O)Cn2ccc(-c3ccc4ncnc(Nc5ccc(OCc6cccc(F)c6)c(Cl)c5)c4c3)c2)CC1` (configuration not stated), the IC50 at EGFR (human) [2] is 1460 nM. For the compound `O=C(Cn1ccc(-c2ccc3ncnc(Nc4ccc(OCc5cccc(F)c5)c(Cl)c4)c3c2)c1)N1CCSC1`, at EGFR (human) [2], the IC50 amounted to 500 nM. The same measure, in the same setting: as for `NC(=O)C1CCN(CC(O)Cn2ccc(-c3ccc4ncnc(Nc5ccc(OCc6cccc(F)c6)c(Cl)c5)c4c3)c2)CC1` (configuration not stated), the figure is 139 nM. On to `CCOC(=O)C1CCN(C(=O)Cn2ccc(-c3ccc4ncnc(Nc5ccc(OCc6cccc(F)c6)c(Cl)c5)c4c3)c2)CC1`, for which the IC50 against EGFR (human) [2] came out at 3320 nM. On to `CC(=O)N[C@@H]1CCN(CC(O)Cn2ccc(-c3ccc4ncnc(Nc5ccc6c(cnn6Cc6cccc(F)c6)c5)c4c3)c2)C1` (some centres not stated), for which, at EGFR (human) [2], the IC50 stood at 350 nM.

For `O=C(Cn1ccc(-c2ccc3ncnc(Nc4ccc(OCc5cccc(F)c5)c(Cl)c4)c3c2)c1)N1CCS(=O)(=O)CC1`, the IC50 against EGFR (human) [2] was 1490 nM. Still for that read-out and setting: next, `Fc1cccc(COc2ccc(Nc3ncnc4ccc(-c5ccn(CCN6CCN(C7CC7)CC6)c5)cc34)cc2Cl)c1`: 1260 nM; `O=C(NCCCN1CCOCC1)c1cn(-c2ccc3ncnc(Nc4ccc(F)c(Cl)c4)c3c2)cc1CCO`: 560 nM; `Fc1cccc(COc2ccc(Nc3ncnc4ccc(-c5ccn(C[C@H]6CCO6)c5)cc34)cc2Cl)c1`: 384 nM. On the same count and under the same terms, next, `OC(CN1CC[C@@H](O)C1)Cn1ccc(-c2ccc3ncnc(Nc4ccc(OCc5cccc(F)c5)c(Cl)c4)c3c2)c1` (some centres not stated): 360 nM; `O=S1(=O)CCC(NCC(O)Cn2ccc(-c3ccc4ncnc(Nc5ccc6c(cnn6Cc6cccc(F)c6)c5)c4c3)c2)CC1` (configuration not stated): 922 nM. With `O[C@@H](CN1CCC(N2CCCCC2)CC1)Cn1ccc(-c2ccc3ncnc(Nc4ccc(OCc5cccc(F)c5)c(Cl)c4)c3c2)c1`, the IC50 against EGFR (human) [2] was 415 nM. Still for that read-out and setting: next, `CC(=O)N[C@@H]1CCN(CC(O)Cn2ccc(-c3ccc4ncnc(Nc5ccc(OCc6cccc(F)c6)c(Cl)c5)c4c3)c2)C1` (some centres not stated): 3770 nM. Still for that read-out and setting: as for `OC(CN1CCC(N2CCCCC2)CC1)Cn1ccc(-c2ccc3ncnc(Nc4ccc5c(cnn5Cc5cccc(F)c5)c4)c3c2)c1` (configuration not stated), the figure is 521 nM; as for `CC(Nc1ncnc2ccc(-n3cc(CCO)c(C(=O)N4CCOCC4)c3)cc12)c1ccccc1` (configuration not stated), 140 nM.

In turn, `Fc1cccc(COc2ccc(Nc3ncnc4ccc(-c5ccn(CCN6CCC(N7CCCCC7)CC6)c5)cc34)cc2Cl)c1` had an IC50 against EGFR (human) [2] of 443 nM. Consider `CC(Nc1ncnc2ccc(-n3cc(CCO)c(CN4CCCC4)c3)cc12)c1ccccc1` (configuration not stated), for which the IC50 at EGFR (human) [2] turned out to be 130 nM. Still for that read-out and setting: next, `COCCNCC(O)Cn1ccc(-c2ccc3ncnc(Nc4ccc5c(cnn5Cc5cccc(F)c5)c4)c3c2)c1` (configuration not stated): 582 nM; `Fc1cccc(COc2ccc(Nc3ncnc4ccc(-c5ccn(Cc6ccccn6)c5)cc34)cc2Cl)c1`: 889 nM. Take `Fc1cccc(Cn2ncc3cc(Nc4ncnc5ccc(-c6ccn(CCN7CCCC7)c6)cc45)ccc32)c1`: the IC50 against EGFR (human) [2] amounted to 612 nM. In turn, `CS(=O)(=O)CCn1ccc(-c2ccc3ncnc(Nc4ccc(OCc5cccc(F)c5)c(Cl)c4)c3c2)c1` displayed an IC50 against EGFR (human) [2] of 647 nM. `OCCN1CCN(CC(O)Cn2ccc(-c3ccc4ncnc(Nc5ccc6c(cnn6Cc6cccc(F)c6)c5)c4c3)c2)CC1` (configuration not stated) displayed an IC50 against EGFR (human) [2] of 459 nM.

On to `OC(CN1CC[C@@H](F)C1)Cn1ccc(-c2ccc3ncnc(Nc4ccc(OCc5cccc(F)c5)c(Cl)c4)c3c2)c1` (some centres not stated), for which the IC50 against EGFR (human) [2] is 682 nM.
